Each structure is given as a SMILES string. Marks after values point to notes of the source that are not given here.

For one data set, the system named is isolated rat heart. Briefly: Isolated rat heart infarction study after oral treatment (cardioprotective activity). Format: in vivo, Wistar rats. The settings on record: for Infarct size, % of control: 20 mg/kg p.o. daily, after 2 weeks of treatment (method: 8 weeks), hearts excised 24 h after last dose, 60 min occlusion, 150 min reperfusion, mean ± s.e.m. of 9-10 animals; for Therapeutical (cardioprotective) effect, in words / Decrease of infarct size: 20 mg/kg p.o., isolated rat heart infarction model; for Decrease of infarct size: versus control. Here is the method: Fifty male, 10 weeks old Wistar rats weighing 200-250 g were housed under standard conditions (21-23° C., 12 h light-dark cycle) with unlimited access to food (R3 diet, Lactamin AB, Sweden) and water.
Rats were adapted to local conditions for two weeks before the start of treatment. Meldonium dihydrate at a dose of 20 mg/kg, gamma-butyrobetaine at a dose of 20 mg/kg and 4-[(chloromethyl)(dimethyl) ammonio]butanoate at dose of 20 mg/kg were administered p.o. daily for 8 weeks. Control rats received water.
The isolated rat heart experiment was performed essentially as described earlier (Liepinsh et al., J. Cardiovasc. Pharmacol. 2006; 48(6):314-9). Twenty-four hours after the last drug administration hearts were excised and retrogradely perfused via the aorta at a constant pressure with oxygenated Krebs-Henseleit buffer at 37° C. The heart rate, left ventricle end-diastolic pressure and left ventricle developed pressure were continuously recorded. Coronary flow was measured using an ultrasound flow detector (HSE) and the PowerLab 8/30 system from ADInstruments. The hearts were perfused for 20 min to stabilize the hemodynamic functions and then occlusion was performed for 60 min by constricting threads through a plastic tube. Successful occlusion was confirmed by a coronary flow decrease of about 40 percent. Reperfusion was achieved by releasing the threads. At the end of the 150-min reperfusion period, the risk zone was delineated with 0.1% methylene blue. The hearts were then sectioned transversely from the apex to the base in five slices 2 mm in thickness and incubated in 1% triphenyltetrazolium chloride in phosphate buffer (pH 7.4, 37° C.) for 10 min to stain viable tissue red and necrotic tissue white. Computerized planemetric analysis of Sony A900 photographs was performed using Image-Pro Plus 6.3 software to determine the area at risk and area of necrosis expressed as a % of the left ventricle. The obtained values were then used to calculate the infarct size (IS) as a % of risk area according to the formula: Infarct Size=Area of Necrosis/Area at Risk×100%. Effects in Isolated Rat Heart Infarction Model
The anti-infarction effect of examined substances was investigated in an isolated rat heart infarction model. During occlusion of left coronary artery, the coronary flow in all experimental groups was decreased for 40% (from 11 ml/min to 7 ml/min). Moreover, the drop of developed left ventricular pressure for 50% was observed. […] In reperfusion stage, coronary flow, developed left ventricular pressure, ±dp/dt values were recovered till about 80% of control level. There were no significant differences between control and treatment groups.
Effects of Meldonium dihydrate (20 mg/kg), gamma-butyrobetaine (20 mg/kg) and 4-[(chloromethyl)(dimethyl) ammonio]butanoate (20 mg/kg) after 2 weeks of treatment on infarct size in the isolated rat heart infarction experiment are presented in Table 1.
Rats were adapted to local conditions for two weeks before the start of treatment. Meldonium dihydrate at a dose of 20 mg/kg, gamma-butyrobetaine at a dose of 20 mg/kg and 3-carboxy-N-(2-chloroethyl)-N,N-dimethylpropan-1-aminium chloride at dose of 20 mg/kg were administered p.o. daily for 8 weeks. Control rats received water.
Effects of Meldonium dihydrate (20 mg/kg), gamma-butyrobetaine (20 mg/kg) and 3-carboxy-N-(2-chloroethyl)-N,N-dimethylpropan-1-aminium chloride (20 mg/kg) after 2 weeks of treatment on infarct size in the isolated rat heart infarction experiment are presented in Table 2.
The same experimental conditions as above were used for testing 3-carboxy-N-(2-fluoroethyl)-N,N-dimethylpropan-1-aminium chloride.
Effects of Meldonium dihydrate (20 mg/kg), gamma-butyrobetaine (20 mg/kg) and 3-carboxy-N-(2-fluoroethyl)-N,N-dimethylpropan-1-aminium chloride (20 mg/kg) after 2 weeks of treatment on infarct size in the isolated rat heart infarction experiment are presented in Table 3.

For data set [1] the following is noted: s.c.; cited from earlier work.

On to `C[N+](C)(CCl)CCCC(=O)[O-]` [4-[(chloromethyl)(dimethyl)ammonio]butanoate], for which the melting point lay within 100.5 to 101 °C. Moreover, in the data set with isolated rat heart, the “Infarct size, % of control” value is recorded as 65.2 ± 6.8*^,#,$ % of control; the “Therapeutical (cardioprotective) effect, in words” value (“Therapeutical” below) was “best therapeutical effect”; the “Decrease of infarct size” value came to 34.8%.

The compound `C[N+](C)(CCCl)CCCC(=O)O.[Cl-]` [3-carboxy-N-(2-chloroethyl)-N,N-dimethylpropan-1-aminium chloride] displayed a melting point of 130 °C. For the same compound, in the data set on isolated rat heart, the “Infarct size, % of control” value is given as 59.9 ± 7.6*^,#,$ % of control; the “Therapeutical” value is reported as “best therapeutical effect”; the “Decrease of infarct size” value is reported as 41.1%.

Regarding `C[N+](C)(CCF)CCCC(=O)O.[Cl-]` [3-carboxy-N-(2-fluoroethyl)-N,N-dimethylpropan-1-aminium chloride], in the data set with isolated rat heart, the “Infarct size, % of control” value was 65.5 ± 9.1*^,#,$ % of control; the “Therapeutical” value is reported as “best therapeutical effect”; the “Decrease of infarct size” value was found to be 34.5%.

For the compound `C[N+](C)(C)CCCC(=O)[O-]` [Gamma-butyrobetaine, γ-Butyrobetaine, reference compound], in the data set on isolated rat heart, the “Infarct size, % of control” value is given as 87.6 ± 11.4 % of control and the “Decrease of infarct size” value is on record as approximately 12.4%. In addition, the LD50 in data set [1] is recorded as more than 7000 mg/kg.

Regarding `C[N+](C)(C)NCCC(=O)[O-]` [Meldonium dihydrate, 3-(2,2,2-Trimethylhydrazinium) propionate dihydrate, reference compound], the “Infarct size, % of control” value with isolated rat heart is reported as 117.9 ± 7.9 % of control.

The record behind these values is patent publication US8940793B2, “4-[(haloalkyl)(dimethyl)ammonio]butanoates and use thereof in the treatment of cardiovascular disease” (JSC Grindeks, priority 2011, dated 2015).
